Laboratory results published in patent publication US20040047922A1, “Preparation with vascular protective and anti-oxidative effect and use thereof” (priority 2000, published 2004).

Tests used:
LDL = experiment: Cu(II)-induced formation of conjugated dienes in LDL isolated from plasma pre-incubated with the test substance (lag phase); type: biochemical; conditions: FIG. 2
Description: In-vitro LDL oxidation is a common model for testing various substances for their antioxidant properties because they accumulate in the LDL in vitro due to pre-incubation of the plasma with (primarily lipophilic) test substances (McLean und Hagaman, 1989, Biochemistry 28(1); pp. 321-327, Esterbauer et al, 1991b, Am. J. Clin. Nutr. 53, pp. 315S-321S). After accumulation, the influence of these substances on the oxidability of LDL can be studied.
Continuous measurement of the formation of conjugated dienes in LDL is an accepted method of comparing oxidizability of the lipid portion of various LDL samples (Esterbauer et al. 1989, Free Rad. Res. Comms. 6(1), pp. 67-75; Parthasarathy et al. 1998, Free Rad. Res. 28, pp. 583-591). […] The study was to find out whether accumulation of lemon oil or γ-terpinene in LDL can protect the LDL from Cu(II)-induced oxidation.
In another test, blood plasma was incubated with 0.5, 0.25, 0.1 and 0.01% γ-terpinene and the LDL isolated from it was tested for resistance against cooper-induced oxidation.

[1] = system: tryptophane residues in apo B-100 of LDL; experiment: Cu(II)-induced loss of tryptophane fluorescence in LDL; type: biochemical; conditions: FIG. 5
Description: Oxidation of HDL or LDL with Cu(II) goes along with a reduction of the tryptophane residues (Reyftmann et al., 1990, Biochim. Biophys. Acta 1042, pp. 159-167), which can be observed by measuring fluorescence. After adding Cu(II) to an LDL solution, fluorescence initially drops within a few seconds due to quenching effects caused by copper. […] The time before the slower phase changes into the faster phase can be defined as the lag phase, just like with diene conjugation. (Giessauf et.al., 1995, Biochim. Biophys. Acta 1256, pp. 221-232). The faster decline in fluorescence starts about at the same time as the propagation phase of diene conjugation and is most likely based on a reaction of lipid peroxidation products with tryptophane residues. We used this test system, too, to find out whether the accumulation of lemon oil or γ-terpinene in LDL influences the Cu(II)-induced loss of tryptophane fluorescence.

CC1=CCC(C(C)C)=CC1 [γ-terpinene]
lag phase of conjugated diene formation (LDL; 0.01% γ-terpinene in the plasma): clearly extended | extension of the lag phase of conjugated diene formation (LDL; 0.1% γ-terpinene in the plasma): about 250 minutes | time without reaching the propagation phase (LDL; higher concentrations in the plasma (0.25 and 0.5% γ-terpinene)): > 500 min | lag phase of conjugated diene formation (LDL; plasma incubated with 0.5, 0.25, 0.1 and 0.01% γ-terpinene, copper-induced oxidation): expands depending on concentration | oxidation of tryptophane residues in LDL ([1]; 0.5% of γ-terpinene in the plasma): almost completely prevents | early protein oxidation (loss of tryptophane fluorescence) ([1]; LDL enriched with γ-terpinene): slows down
